Values quoted from earlier work in US20090264528A1, “SERINE PALMITOYLCOA TRANSFERASE (SPT) INHIBITION BY MYRIOCIN OR GENETIC DEFICIENCY DECREASES CHOLESTEROL ABSORPTION” (The Research Foundation of State University of New York, priority 2008, published 2009).

Conditions: apoE KO mice; cited from earlier work

SMILES: CCCCCCCCc1ccc(CCC(N)(CO)CO)cc1 [FTY720]
- plasma cholesterol levels: increases
